Measurements: the Kinase Knowledgebase extract (Sharma et al. 2016)

Legend:
PIK3CA (human) = PIK3CA (human) (UniProt P42336); test: Assessment of PIK3CA Kinase Activity
PIK3CD (Human) = PIK3CD (Human) (UniProt O00329); test: Assessment of PIK3CD Kinase Activity
PIK3CG (human) = PIK3CG (human) (UniProt P48736); test: Assessment of PIK3CG Kinase Activity
PIK3CB (Human) = PIK3CB (Human) (UniProt P42338); test: Assessment of PIK3CB Kinase Activity
PIK3CB (Human), sequence (P42338 whole entry, looked up): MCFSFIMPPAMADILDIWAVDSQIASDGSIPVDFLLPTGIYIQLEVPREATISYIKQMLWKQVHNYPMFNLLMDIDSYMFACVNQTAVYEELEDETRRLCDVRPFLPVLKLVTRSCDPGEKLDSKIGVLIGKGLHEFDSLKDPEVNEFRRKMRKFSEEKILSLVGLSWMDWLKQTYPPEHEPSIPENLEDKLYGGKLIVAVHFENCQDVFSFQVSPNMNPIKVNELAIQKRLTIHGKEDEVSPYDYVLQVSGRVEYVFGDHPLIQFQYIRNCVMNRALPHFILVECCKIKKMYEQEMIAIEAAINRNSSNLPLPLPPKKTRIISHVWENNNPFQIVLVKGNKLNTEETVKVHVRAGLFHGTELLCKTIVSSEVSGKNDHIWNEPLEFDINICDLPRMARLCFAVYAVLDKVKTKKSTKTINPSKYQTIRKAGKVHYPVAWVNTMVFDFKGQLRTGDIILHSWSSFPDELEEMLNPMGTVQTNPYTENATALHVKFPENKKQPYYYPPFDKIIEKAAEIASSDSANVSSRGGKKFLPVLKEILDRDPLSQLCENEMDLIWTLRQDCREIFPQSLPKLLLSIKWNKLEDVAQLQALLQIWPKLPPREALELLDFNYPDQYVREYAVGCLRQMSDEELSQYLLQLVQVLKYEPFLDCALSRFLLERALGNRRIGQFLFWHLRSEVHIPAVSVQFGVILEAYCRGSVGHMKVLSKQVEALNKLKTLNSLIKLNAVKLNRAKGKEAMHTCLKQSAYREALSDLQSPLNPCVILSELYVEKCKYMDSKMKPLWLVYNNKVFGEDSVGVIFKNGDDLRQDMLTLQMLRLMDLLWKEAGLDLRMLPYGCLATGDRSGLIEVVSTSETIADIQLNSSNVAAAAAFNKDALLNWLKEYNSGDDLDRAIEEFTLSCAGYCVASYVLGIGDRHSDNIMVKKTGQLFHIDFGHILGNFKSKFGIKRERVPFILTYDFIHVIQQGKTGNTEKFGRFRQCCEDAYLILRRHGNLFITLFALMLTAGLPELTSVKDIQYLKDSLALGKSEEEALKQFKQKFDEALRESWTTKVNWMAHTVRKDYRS

PIK3CA (human), sequence (P42336 whole entry, looked up): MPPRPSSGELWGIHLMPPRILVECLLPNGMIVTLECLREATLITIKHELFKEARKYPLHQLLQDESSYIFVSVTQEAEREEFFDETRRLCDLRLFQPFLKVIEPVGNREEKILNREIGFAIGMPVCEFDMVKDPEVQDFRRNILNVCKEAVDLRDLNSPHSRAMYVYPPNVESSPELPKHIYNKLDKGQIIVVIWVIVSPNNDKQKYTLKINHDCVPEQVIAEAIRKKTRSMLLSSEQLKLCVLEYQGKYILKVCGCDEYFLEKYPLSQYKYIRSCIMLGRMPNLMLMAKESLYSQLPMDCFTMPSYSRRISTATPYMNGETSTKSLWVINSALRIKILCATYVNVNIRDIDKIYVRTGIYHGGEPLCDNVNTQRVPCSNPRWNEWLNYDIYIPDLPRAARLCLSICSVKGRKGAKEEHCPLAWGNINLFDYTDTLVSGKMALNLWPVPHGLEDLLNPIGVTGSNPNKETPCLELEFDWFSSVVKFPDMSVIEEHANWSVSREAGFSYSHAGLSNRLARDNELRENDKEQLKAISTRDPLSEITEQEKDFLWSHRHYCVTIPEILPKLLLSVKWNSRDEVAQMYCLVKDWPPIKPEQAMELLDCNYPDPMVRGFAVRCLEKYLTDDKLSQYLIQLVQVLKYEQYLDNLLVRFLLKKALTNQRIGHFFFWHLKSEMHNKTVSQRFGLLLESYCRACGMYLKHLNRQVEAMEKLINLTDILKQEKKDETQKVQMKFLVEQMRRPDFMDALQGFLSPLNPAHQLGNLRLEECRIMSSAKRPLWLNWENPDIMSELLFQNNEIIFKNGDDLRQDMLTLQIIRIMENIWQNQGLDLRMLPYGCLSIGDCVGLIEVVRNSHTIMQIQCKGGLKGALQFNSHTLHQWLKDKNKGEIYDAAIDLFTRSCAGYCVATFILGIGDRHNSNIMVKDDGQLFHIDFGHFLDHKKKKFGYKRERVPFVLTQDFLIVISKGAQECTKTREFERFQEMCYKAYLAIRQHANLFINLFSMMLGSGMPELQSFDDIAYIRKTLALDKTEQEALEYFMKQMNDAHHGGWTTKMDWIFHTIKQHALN
PIK3CG (human), sequence (P48736 whole entry, looked up): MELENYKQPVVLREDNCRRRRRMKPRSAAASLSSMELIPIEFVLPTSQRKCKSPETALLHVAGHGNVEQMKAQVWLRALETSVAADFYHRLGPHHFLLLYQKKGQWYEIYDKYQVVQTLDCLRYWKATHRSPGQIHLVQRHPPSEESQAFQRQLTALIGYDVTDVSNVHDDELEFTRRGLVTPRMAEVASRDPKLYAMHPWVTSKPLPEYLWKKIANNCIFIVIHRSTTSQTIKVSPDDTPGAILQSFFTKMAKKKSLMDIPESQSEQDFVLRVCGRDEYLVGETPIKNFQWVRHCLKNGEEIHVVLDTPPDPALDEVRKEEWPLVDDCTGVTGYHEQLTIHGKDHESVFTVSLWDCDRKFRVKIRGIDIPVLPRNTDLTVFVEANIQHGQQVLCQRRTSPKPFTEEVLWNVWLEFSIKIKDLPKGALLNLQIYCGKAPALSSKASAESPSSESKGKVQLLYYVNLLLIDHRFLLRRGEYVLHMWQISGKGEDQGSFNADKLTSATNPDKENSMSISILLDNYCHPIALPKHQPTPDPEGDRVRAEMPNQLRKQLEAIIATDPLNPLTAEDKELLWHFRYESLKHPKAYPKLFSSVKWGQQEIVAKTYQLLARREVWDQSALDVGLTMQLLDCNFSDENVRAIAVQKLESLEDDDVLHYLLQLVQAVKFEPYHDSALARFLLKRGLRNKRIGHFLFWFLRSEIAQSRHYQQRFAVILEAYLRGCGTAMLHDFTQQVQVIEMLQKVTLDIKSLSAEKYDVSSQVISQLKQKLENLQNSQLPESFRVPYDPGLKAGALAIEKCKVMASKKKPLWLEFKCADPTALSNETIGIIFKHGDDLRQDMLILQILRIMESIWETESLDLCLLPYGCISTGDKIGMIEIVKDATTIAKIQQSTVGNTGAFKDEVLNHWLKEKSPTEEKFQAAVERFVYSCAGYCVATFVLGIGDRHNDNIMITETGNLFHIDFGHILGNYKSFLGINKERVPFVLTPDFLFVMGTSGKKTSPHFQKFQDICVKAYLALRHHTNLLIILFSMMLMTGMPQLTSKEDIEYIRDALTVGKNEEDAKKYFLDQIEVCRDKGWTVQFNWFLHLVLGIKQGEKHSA
PIK3CD (Human), sequence (O00329 whole entry, looked up): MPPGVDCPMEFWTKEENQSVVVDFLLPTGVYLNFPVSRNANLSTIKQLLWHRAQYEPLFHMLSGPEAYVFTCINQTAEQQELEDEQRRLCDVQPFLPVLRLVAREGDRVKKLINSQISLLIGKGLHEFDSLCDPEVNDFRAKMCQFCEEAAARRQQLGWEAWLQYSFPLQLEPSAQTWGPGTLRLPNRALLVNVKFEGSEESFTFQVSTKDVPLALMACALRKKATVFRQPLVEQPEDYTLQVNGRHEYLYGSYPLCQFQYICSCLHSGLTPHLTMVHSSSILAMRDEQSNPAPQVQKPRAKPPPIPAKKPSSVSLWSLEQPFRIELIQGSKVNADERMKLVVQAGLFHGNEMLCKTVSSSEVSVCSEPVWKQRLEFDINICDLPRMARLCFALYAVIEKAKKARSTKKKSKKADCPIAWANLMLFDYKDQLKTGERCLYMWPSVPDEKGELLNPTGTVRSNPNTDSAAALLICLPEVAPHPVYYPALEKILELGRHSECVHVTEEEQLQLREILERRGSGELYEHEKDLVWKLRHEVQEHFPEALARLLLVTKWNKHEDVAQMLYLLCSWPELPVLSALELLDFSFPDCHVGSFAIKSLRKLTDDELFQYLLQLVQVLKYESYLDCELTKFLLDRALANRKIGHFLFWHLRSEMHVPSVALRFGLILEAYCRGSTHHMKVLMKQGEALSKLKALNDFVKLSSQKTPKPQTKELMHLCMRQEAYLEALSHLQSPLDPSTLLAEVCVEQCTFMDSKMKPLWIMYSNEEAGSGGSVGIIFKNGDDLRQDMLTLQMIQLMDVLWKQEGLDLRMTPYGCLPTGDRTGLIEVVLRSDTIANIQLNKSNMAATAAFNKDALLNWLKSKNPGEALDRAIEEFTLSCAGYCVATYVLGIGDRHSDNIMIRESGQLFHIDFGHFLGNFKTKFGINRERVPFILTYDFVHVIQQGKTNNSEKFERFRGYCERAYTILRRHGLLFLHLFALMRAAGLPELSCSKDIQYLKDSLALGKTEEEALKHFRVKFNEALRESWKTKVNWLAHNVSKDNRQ

Structure (SMILES)	IC50 (PIK3CA (human)) [nM]	IC50 (PIK3CD (Human)) [nM]	IC50 (PIK3CG (human)) [nM]	IC50 (PIK3CB (Human)) [nM]
CC(=O)Nc1cccc(-c2cc3nc(-c4cccc5[nH]ncc45)nc(N4CCOCC4)c3s2)c1	< 1000	> 100	< 100	< 100
CS(=O)(=O)c1cccc(-c2cc3nc(-c4cnc5[nH]ccc5c4)nc(N4CCOCC4)c3s2)c1	< 1000	< 100	< 100	< 100
c1cc(-c2nc(N3CCOCC3)c3sc(-c4cn[nH]c4)cc3n2)c2cn[nH]c2c1	< 1000	> 100	< 100	> 100
OCc1cccc(-c2cc3nc(-c4cccc5[nH]ncc45)nc(N4CCOCC4)c3s2)c1	< 1000	> 100	< 100	< 100
c1cc2cc(-c3nc(N4CCOCC4)c4sc(-c5ccc(N6CCOCC6)nc5)cc4n3)cnc2[nH]1	< 1000	< 100	< 100	< 100
CC(C)(O)c1cc2nc(-c3cccc4[nH]ccc34)nc(N3CCOCC3)c2s1	< 1000	> 100	< 100	< 100
CC(C)(NC(=O)c1ccccc1)c1cc2nc(-c3cccc4[nH]ncc34)nc(N3CCOCC3)c2s1	< 1000	> 100	< 100	< 100
CS(=O)(=O)c1cccc(C(=O)NCc2cc3nc(-c4cccc5[nH]ncc45)nc(N4CCOCC4)c3s2)c1	< 1000	> 100	< 100	< 100
Cc1c(-c2cccc(S(C)(=O)=O)c2)sc2c(N3CCOCC3)nc(-c3cnc4[nH]ccc4c3)nc12	< 1000	< 100	< 100	< 100
CC(C)(O)c1cc2nc(-c3cnc4[nH]ccc4c3)nc(N3CCOCC3)c2s1	< 1000	> 100	< 100	< 100
Nc1nc(-c2cc3nc(-c4cnc5[nH]ccc5c4)nc(N4CCOCC4)c3s2)cs1	< 1000	< 100	< 100	< 100
C[C@H](O)CNC(=O)c1cccc(-c2cc3nc(-c4cccc5[nH]ncc45)nc(N4CCOCC4)c3s2)c1	< 1000	> 100	< 100	< 100
CNC(=O)c1cccc(-c2cc3nc(-c4cccc5[nH]ncc45)nc(N4CCOCC4)c3s2)c1	< 1000	> 100	< 100	< 100
Cc1c(-c2cccc(S(C)(=O)=O)c2)sc2c(N3CCOCC3)nc(-c3cccc4[nH]ncc34)nc12	< 1000	< 100	< 100	< 100
O=C(O)c1cccc(-c2cc3nc(-c4cccc5[nH]ncc45)nc(N4CCOCC4)c3s2)c1	< 1000	> 100	< 100	< 100
c1ccc(-c2cc3nc(-c4cccc5[nH]ncc45)nc(N4CCOCC4)c3o2)cc1	< 1000	> 100	> 100	< 100
CN(Cc1cc2c(N3CCOCC3)nc(-c3cnc4[nH]ccc4c3)nc2s1)S(C)(=O)=O	< 1000	< 100	< 100	< 100
COc1ccc(NCc2cc3nc(-c4cccc5[nH]ncc45)nc(N4CCOCC4)c3s2)cn1	< 1000	> 100	< 100	> 100
CN(Cc1cc2nc(-c3cccc4[nH]ncc34)nc(N3CCOCC3)c2s1)C(=O)c1ccccc1	< 1000	> 100	> 100	> 100
NCC(=O)Nc1cccc(-c2cc3nc(-c4cccc5[nH]ncc45)nc(N4CCOCC4)c3s2)c1	< 1000	> 100	> 100	< 100

Results, then the molecule that gave them:

IC50 (PIK3CA (human)) [nM]	IC50 (PIK3CD (Human)) [nM]	IC50 (PIK3CG (human)) [nM]	IC50 (PIK3CB (Human)) [nM]	Structure (SMILES)
< 1000	> 100	< 100	> 100	O=C(NOCC1CC1)c1cc2nc(-c3cccc4[nH]ncc34)nc(N3CCOCC3)c2s1
< 1000	> 100	< 100	> 100	O=C(NCc1cc2nc(-c3cccc4[nH]ncc34)nc(N3CCOCC3)c2s1)N1CCOCC1
< 1000	> 100	< 100	< 100	COC/C=C/c1cc2nc(-c3cccc4[nH]ncc34)nc(N3CCOCC3)c2s1
< 1000	> 100	< 100	> 100	C[C@H](O)CNCc1cc2nc(-c3cccc4[nH]ncc34)nc(N3CCOCC3)c2s1
< 1000	> 100	< 100	> 100	CS(=O)(=O)N1CCC(C(O)c2cc3nc(-c4cccc5[nH]ncc45)nc(N4CCOCC4)c3s2)CC1 (centres undefined)
< 1000	> 100	< 100	> 100	CN(C)C(=O)c1cc2nc(-c3cccc4[nH]ncc34)nc(N3CCOCC3)c2s1
< 1000	> 100	> 100	> 100	CCNC(=O)c1cc2nc(-c3cccc4[nH]ncc34)nc(N3CCOCC3)c2s1
< 1000	> 100	< 100	> 100	OCCNc1cc2nc(-c3cccc4[nH]ncc34)nc(N3CCOCC3)c2s1
< 1000	> 100	< 100	< 100	CC(C)(O)c1cc2nc(-c3cccc4[nH]ncc34)nc(N3CCOCC3)c2s1
< 1000	> 100	< 100	> 100	c1cc(-c2nc(N3CCOCC3)c3sc(Cn4ccnc4)cc3n2)c2cn[nH]c2c1
< 1000	> 100	< 100	< 100	O=S(=O)(Nc1cccc(O)c1)c1cc2nc(-c3cccc4[nH]ncc34)nc(N3CCOCC3)c2s1
< 1000	> 100	< 100	> 100	O=C(NCCN1CCCCC1)c1cc2nc(-c3cccc4[nH]ncc34)nc(N3CCOCC3)c2s1
< 1000	> 100	< 100	< 100	CS(=O)(=O)c1cccc(-c2cc3nc(-c4cccc5[nH]ncc45)nc(N4CCOCC4)c3s2)c1
< 1000	> 100	< 100	< 100	CN(C)Cc1cc2nc(-c3cccc4[nH]ncc34)nc(N3CCOCC3)c2s1
< 1000	> 100	< 100	< 100	O=S(=O)(NCCN1CCCCC1)c1cc2nc(-c3cccc4[nH]ncc34)nc(N3CCOCC3)c2s1
< 1000	> 100	< 100	> 100	OC1(c2cc3nc(-c4cccc5[nH]ncc45)nc(N4CCOCC4)c3s2)CCC1
